Experimental data as given in patent publication US10781224B2, “Bis(oxymethyl)phosphinic acid and biogenic metal salts thereof as regulators of plant growth and development” (priority 2016, dated 2020).

Tests used:
rice (Diamant variety) = experiment: Rice seed treatment with BHMPA salts: germination energy and germination rate; format: in vivo
In short: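 Corn, winter wheat and rice seeds (50 per dish, on filter paper) were soaked for 1 h in BHMPA or its metal salts at 1·10^−6-1·10^−12%, with water as control. Germination energy was read on day 4 and germination rate on day 8 for wheat and day 7 for rice and corn, following GOST 12038-84, as the mean of four replicates.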

[1] = system: winter wheat (Vershin variety); experiment: Winter wheat seed treatment with BHMPA salts: germinating power (length and mass of roots and sprouts); format: in vivo
In short: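 Seeds (50 per Petri dish on two layers of filter paper) soaked 1 h in BHMPA or its Ca, Mg, Na, Co, Mn, Cu or Zn salts at 1·10^−6-1·10^−12%, with water controls. Germination energy read on day 4, germination on day 8 (wheat) or day 7 (rice, corn), as % means of four replicates. Germinating power taken as root and sprout length plus wet and dry mass per 100 seedlings.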

[2] = rice seed treatment, solution 1 · 10^−10%
[3] = seed treatment, concentration 1 · 10^−6%
[4] = seed treatment, concentration 1 · 10^−7%
[5] = seed treatment, concentration 1 · 10^−8%
[6] = seed treatment, concentration 1 · 10^−9%
[7] = seed treatment, concentration 1 · 10^−10%
[8] = seed treatment, concentration 1 · 10^−11%
[9] = seed treatment, concentration 1 · 10^−12%
[10] = comparative study, 1·10^−11% solution

O=P([O-])(CO)CO.O=P([O-])(CO)CO.[Mg+2] [Mg-salt, Magnesium BHMPA Salt]
Germination energy, % (rice (Diamant variety); [2]): 87.5% | Germination rate, % (rice (Diamant variety); [2]): 94.0% | Germination energy (rice (Diamant variety); rice, 1·10^−10% solution): 86.3% | Germination rate (rice (Diamant variety); rice, 1·10^−10% solution): 92.7% | Germination energy (rice (Diamant variety); [3]): 77.7% | Germination rate (rice (Diamant variety); [3]): 83.3% | Germination energy (rice (Diamant variety); [4]): 80.3% | Germination rate (rice (Diamant variety); [4]): 85.0% | Germination energy (rice (Diamant variety); [5]): 81.7% | Germination rate (rice (Diamant variety); [5]): 87.3% | Germination energy (rice (Diamant variety); [6]): 84.3% | Germination rate (rice (Diamant variety); [6]): 90.7% | Germination energy (rice (Diamant variety); [7]): 86.3% | Germination rate (rice (Diamant variety); [7]): 92.7% | Germination energy (rice (Diamant variety); [8]): 83.3% | Germination rate (rice (Diamant variety); [8]): 89.3% | Germination energy (rice (Diamant variety); [9]): 79.3% | Germination rate (rice (Diamant variety); [9]): 84.7% | Length, root ([1]; 1·10^−6% solution): 9.2 cm | Length, root, + % to control ([1]; 1·10^−6% solution): −1% | Length, sprout ([1]; 1·10^−6% solution): 7.1 cm | Length, sprout, + % to control ([1]; 1·10^−6% solution): −1% | Mass, dry, root ([1]; 1·10^−6% solution): 0.57 g/100 plantlings | Mass, dry, root, + % to control ([1]; 1·10^−6% solution): −2% | Mass, dry, sprout ([1]; 1·10^−6% solution): 0.65 g/100 plantlings | Mass, dry, sprout, + % to control ([1]; 1·10^−6% solution): −15% | Mass, wet, root ([1]; 1·10^−6% solution): 2.55 g/100 plantlings | Mass, wet, root, + % to control ([1]; 1·10^−6% solution): −1% | Mass, wet, sprout ([1]; 1·10^−6% solution): 5.45 g/100 plantlings | Mass, wet, sprout, + % to control ([1]; 1·10^−6% solution): −2.5% | germinating power results vs control ([1]; 1·10^−6% solution): lower than those of the control | Length, root ([1]; 1·10^−7% solution): 10.0 cm | Length, root, + % to control ([1]; 1·10^−7% solution): 7.5% | Length, sprout ([1]; 1·10^−7% solution): 7.2 cm | Length, sprout, + % to control ([1]; 1·10^−7% solution): 0% | Mass, dry, root ([1]; 1·10^−7% solution): 0.61 g/100 plantlings | Mass, dry, root, + % to control ([1]; 1·10^−7% solution): 5% | Mass, dry, sprout ([1]; 1·10^−7% solution): 0.79 g/100 plantlings | Mass, dry, sprout, + % to control ([1]; 1·10^−7% solution): 2.6% | Mass, wet, root ([1]; 1·10^−7% solution): 2.68 g/100 plantlings | Mass, wet, root, + % to control ([1]; 1·10^−7% solution): 3% | Mass, wet, sprout ([1]; 1·10^−7% solution): 5.63 g/100 plantlings | Mass, wet, sprout, + % to control ([1]; 1·10^−7% solution): 0.7% | Length, root ([1]; 1·10^−8% solution): 10.0 cm | Length, root, + % to control ([1]; 1·10^−8% solution): 7.5% | Length, sprout ([1]; 1·10^−8% solution): 7.4 cm | Length, sprout, + % to control ([1]; 1·10^−8% solution): 3% | Mass, dry, root ([1]; 1·10^−8% solution): 0.62 g/100 plantlings | Mass, dry, root, + % to control ([1]; 1·10^−8% solution): 7% | Mass, dry, sprout ([1]; 1·10^−8% solution): 0.80 g/100 plantlings | Mass, dry, sprout, + % to control ([1]; 1·10^−8% solution): 4% | Mass, wet, root ([1]; 1·10^−8% solution): 2.97 g/100 plantlings | Mass, wet, root, + % to control ([1]; 1·10^−8% solution): 15.5% | Mass, wet, sprout ([1]; 1·10^−8% solution): 5.79 g/100 plantlings | Mass, wet, sprout, + % to control ([1]; 1·10^−8% solution): 3.6% | Length, root ([1]; 1·10^−9% solution): 10.9 cm | Length, root, + % to control ([1]; 1·10^−9% solution): 17% | Length, sprout ([1]; 1·10^−9% solution): 7.5 cm | Length, sprout, + % to control ([1]; 1·10^−9% solution): 4% | Mass, dry, root ([1]; 1·10^−9% solution): 0.63 g/100 plantlings | Mass, dry, root, + % to control ([1]; 1·10^−9% solution): 8.6% | Mass, dry, sprout ([1]; 1·10^−9% solution): 0.81 g/100 plantlings | Mass, dry, sprout, + % to control ([1]; 1·10^−9% solution): 5% | Mass, wet, root ([1]; 1·10^−9% solution): 2.98 g/100 plantlings | Mass, wet, root, + % to control ([1]; 1·10^−9% solution): 16% | Mass, wet, sprout ([1]; 1·10^−9% solution): 5.81 g/100 plantlings | Mass, wet, sprout, + % to control ([1]; 1·10^−9% solution): 4% | Length, root ([1]; 1·10^−10% solution): 11.3 cm | Length, root, + % to control ([1]; 1·10^−10% solution): 21.5% | Length, sprout ([1]; 1·10^−10% solution): 7.5 cm | Length, sprout, + % to control ([1]; 1·10^−10% solution): 4% | Mass, dry, root ([1]; 1·10^−10% solution): 0.66 g/100 plantlings | Mass, dry, root, + % to control ([1]; 1·10^−10% solution): 24% | Mass, dry, sprout ([1]; 1·10^−10% solution): 0.83 g/100 plantlings | Mass, dry, sprout, + % to control ([1]; 1·10^−10% solution): 8% | Mass, wet, root ([1]; 1·10^−10% solution): 2.94 g/100 plantlings | Mass, wet, root, + % to control ([1]; 1·10^−10% solution): 14% | Mass, wet, sprout ([1]; 1·10^−10% solution): 5.84 g/100 plantlings | Mass, wet, sprout, + % to control ([1]; 1·10^−10% solution): 4.5% | Length, root ([1]; 1·10^−11% solution): 12.2 cm | Length, root, + % to control ([1]; 1·10^−11% solution): 31% | Length, sprout ([1]; 1·10^−11% solution): 7.7 cm | Length, sprout, + % to control ([1]; 1·10^−11% solution): 7% | Mass, dry, root ([1]; 1·10^−11% solution): 0.74 g/100 plantlings | Mass, dry, root, + % to control ([1]; 1·10^−11% solution): 27.5% | Mass, dry, sprout ([1]; 1·10^−11% solution): 1.07 g/100 plantlings | Mass, dry, sprout, + % to control ([1]; 1·10^−11% solution): 39% | Mass, wet, root ([1]; 1·10^−11% solution): 3.41 g/100 plantlings | Mass, wet, root, + % to control ([1]; 1·10^−11% solution): 33% | Mass, wet, sprout ([1]; 1·10^−11% solution): 5.94 g/100 plantlings | Mass, wet, sprout, + % to control ([1]; 1·10^−11% solution): 6% | Length, root ([1]; 1·10^−12% solution): 12.1 cm | Length, root, + % to control ([1]; 1·10^−12% solution): 30% | Length, sprout ([1]; 1·10^−12% solution): 7.6 cm | Length, sprout, + % to control ([1]; 1·10^−12% solution): 5.5% | Mass, dry, root ([1]; 1·10^−12% solution): 0.69 g/100 plantlings | Mass, dry, root, + % to control ([1]; 1·10^−12% solution): 19% | Mass, dry, sprout ([1]; 1·10^−12% solution): 0.84 g/100 plantlings | Mass, dry, sprout, + % to control ([1]; 1·10^−12% solution): 9% | Mass, wet, root ([1]; 1·10^−12% solution): 3.11 g/100 plantlings | Mass, wet, root, + % to control ([1]; 1·10^−12% solution): 21% | Mass, wet, sprout ([1]; 1·10^−12% solution): 5.86 g/100 plantlings | Mass, wet, sprout, + % to control ([1]; 1·10^−12% solution): 5% | Length, root [1, 10]: 10.0 cm | Length, root, + % to control [1, 10]: 15% | Length, sprout [1, 10]: 7.2 cm | Length, sprout, + % to control [1, 10]: 16% | Mass, dry, root [1, 10]: 0.69 g/100 plantlings | Mass, dry, root, + % to control [1, 10]: 11% | Mass, dry, sprout [1, 10]: 0.57 g/100 plantlings | Mass, dry, sprout, + % to control [1, 10]: 12% | Mass, wet, root [1, 10]: 5.76 g/100 plantlings | Mass, wet, root, + % to control [1, 10]: 59% | Mass, wet, sprout [1, 10]: 5.04 g/100 plantlings | Mass, wet, sprout, + % to control [1, 10]: 27%
